Among the data in patent US11459313B2, “Aziridinyl and amino dimeric naphthoquinone compounds and use for acute myeloid leukemia” (University of Maryland, Baltimore, priority 2016, dated 2022) are IC50 values, retold here.

Read-outs that look alike come from different tables or passages of the source.

One experiment concerns MOLM-14 cells. The experiment is described as follows: WST-1 cell proliferation assay, MOLM-14. It counts as cell-based, human. Particulars: cell proliferation. The protocol:
(§1) Cell lines were seeded into 96-well plates the afternoon prior to treatment. Approximately 18 hours later, bis and mono-aziridine dimeric naphthoquinone compounds were semi-serially diluted in dimethyl sulfoxide (DMSO) and then growth medium, and added to cells. Plates were incubated for 72 hours prior to addition of WST-1 (Promega®). Plates were read after 4 additional hours of incubation at 37° C. using a Bio-Tek Synergy® HT plate reader (Bio-Tek®). Data were analyzed and graphed using GraphPad Prism® Software (Graph Pad®).
(§2) Primary AML cells from patients and cell lines were seeded into 96-well plates the afternoon prior to treatment. Eighteen hours later, amino-dimeric naphthoquinone Compounds 106, 101, and 114 were semi-serially diluted in dimethyl sulfoxide (DMSO) and then growth medium, and added to the cells. In order to quantitate proliferation of metabolically active cells, plates were incubated for 72 hours for cell lines and 48 hours for primary AML cells prior to addition of water-soluble tetrazolium (WST-1) (Clontech®). Plates were read after four additional hours of incubation at 37° C. using a Bio-Tek Synergy® HT plate reader (Bio-Tele®). Data were analyzed and graphed using GraphPad Prism® Software (GraphPad®). IC50 was defined as the concentration that decreases viable cell numbers by 50%. IC50 values were calculated as mean±standard deviation from at least two independent experiments. If availability of primary blasts was limited, the IC50 was obtained from a single experiment.
To investigate antiproliferative activity of amino-dimeric naphthoquinones against AML cells, an MTT-like cell proliferation assay was performed in the AML cell lines using WST-1 (water soluble tetrazolium salts; Promega®). MOLM-14 and AML-D cells, as well as normal hematopoietic bone marrow cells from a healthy donor, were exposed to a range of concentrations of Compound 101. Human leukemia cells were cultured in the presence of the compound for 72 hours (48 hours for primary cells) and WST-1 reagent was then added. The cells then were monitored for cell growth or the number of cells proliferating and the IC50 calculated. The IC50 is the concentration at which 50% of the cells are not proliferating compared to control cells treated with vehicle. See FIG. 2A, FIG. 2B, and FIG. 2C for representative graphs of these IC50 determinations.

Another experiment concerns MV4-11 cells. The experiment is described as follows: WST-1 cell proliferation assay, MV4-11. It counts as cell-based, human. The protocol:
as §1, §2
On the technique in general: Tetrazolium dyes change colour on reduction, which living cells bring about.

Where [1] appears, read: Homo sapiens, MOLM-14, Table 1, read-out: MOLM14 IC50.
Setting [2] is: Homo sapiens, MOLM-14, Table 7, read-out: IC50 (μM) MOLM-14.
The mark [3] stands for this setting: Homo sapiens, MV4-11, Table 1, cell proliferation, read-out: MV411 IC50.
[4] abbreviates: Homo sapiens, MV4-11, Table 7, cell proliferation, read-out: IC50 (μM) MV411.
The mark [5] stands for this setting: Table 2, cell proliferation, read-out: MV411 IC50.
Where [6] appears, read: Homo sapiens, MOLM-14, Table 3, read-out: MOLM14 IC50.
Where [7] appears, read: Homo sapiens, MV4-11, Table 3, cell proliferation, read-out: MV411 IC50.
The mark [8] stands for this setting: Homo sapiens, MOLM-14, Table 9, read-out: IC50 (μM) MOLM-14.
[9] abbreviates: Homo sapiens, MV4-11, Table 9, cell proliferation, read-out: IC50 (μM) MV411.
[10] abbreviates: Homo sapiens, MOLM-14, Table 2, read-out: MOLM14 IC50.
[11] abbreviates: Homo sapiens, MV4-11, Table 2, cell proliferation, read-out: MV411 IC50.
Where [12] appears, read: Table 1, cell proliferation, read-out: MV411 IC50.

One may read the IC50 as the concentration needed to halve the response being measured.

Consider `CN(C)C1=C(C2=C(Cl)C(=O)c3ccccc3C2=O)C(=O)c2ccccc2C1=O` [Compound 123, 3-chloro-3′-(dimethylamino)-2,2′-binaphthalenyl-1,1′,4,4′-tetrone], for which the IC50 in the experiment with MOLM-14 cells (setting [1]) came out at 3 ± 1.42 µM; with MOLM-14 cells (setting [2]) it was 3 µM; in the experiment on MV4-11 cells (setting [3]), 2.4 ± 2 µM; in the experiment with MV4-11 cells (setting [4]), 2.4 µM.
On to `O=C1C(C2=C(N3CCC(O)CC3)C(=O)c3ccccc3C2=O)=C(N2CCC(O)CC2)C(=O)c2ccccc21` [Compound 122, 3,3′-bis-(4-hydroxypiperidinyl)-2,2′-binaphthalenyl-1,1′,4,4′-tetrone], for which the IC50 in the experiment with MOLM-14 cells (Table 2, read-out: MOLM14 IC50) is 4.3 ± 2.12 µM; in the experiment with MV4-11 cells (setting [5]), 2.5 µM.
For the compound `COCCN(C)C1=C(C2=C(N(C)CCOC)C(=O)c3ccccc3C2=O)C(=O)c2ccccc2C1=O` [Compound 108, 3,3′-bis-[(2-methoxyethyl)(N-methyl)amino]-2,2′-binaphthalenyl-1,1′,4,4′-tetrone], the 50% inhibitory concentration (IC50) came to 5.55 ± 0.78 µM in the experiment on MOLM-14 cells (setting [6]), 6.1 µM in the experiment on MOLM-14 cells (setting [2]), 5.5 ± 0.71 µM in the experiment with MV4-11 cells (setting [7]) and 6 µM in the experiment on MV4-11 cells (setting [4]).
As to `O=C1C(NCCO)=C(C2=C(NCCO)C(=O)c3cc(F)ccc3C2=O)C(=O)c2ccccc21` [Compound 137], the IC50 amounted to 0.37 ± 0.17 µM with MOLM-14 cells (setting [8]) and 1.16 ± 0.2 µM in the experiment on MV4-11 cells (setting [9]).
Consider `CN(C)C1=C(C2=C(N(C)C)C(=O)c3ccccc3C2=O)C(=O)c2ccccc2C1=O` [Compound 120, 3,3′-bis-(2-dimethylamino)-2,2′-biuaphthalenyl-1,1′,4,4′-tetrone], for which the IC50 was 2.8 ± 0.91 µM with MOLM-14 cells (setting [10]), 2.9 µM in the experiment with MOLM-14 cells (setting [2]), 2.15 ± 0.64 µM in the experiment with MV4-11 cells (setting [11]) and 2.4 µM in the experiment with MV4-11 cells (setting [4]).
As for `CC(=O)OCCNC1=C(C2=C(NCCOC(C)=O)C(=O)c3ccccc3C2=O)C(=O)c2ccccc2C1=O` [Compound 119], the IC50 in the experiment with MOLM-14 cells (setting [8]) was found to be 1 µM; in the experiment with MV4-11 cells (setting [9]) it was 2.2 ± 0.7 µM.
As for `CN(C)CCNC1=C(C2=C(NCCN(C)C)C(=O)c3ccccc3C2=O)C(=O)c2ccccc2C1=O` [Compound 103, 3,3′-bis({[2-(dimethylamino)ethyl]amino})-[2,2′-binaphthalene]-1,1′,4,4′-tetrone], the results for the IC50 with MOLM-14 cells (setting [10]) and in the experiment with MV4-11 cells (setting [11]) were 0.12 µM and 0.49 µM, respectively.
As to `O=C1C(C2=C(N3CCN(CCO)CC3)C(=O)c3ccccc3C2=O)=C(N2CCN(CCO)CC2)C(=O)c2ccccc21` [Compound 121, 3,3′-bis[4-(2-hydroxyethyl)piperazin-1-yl]-4a,5a-dihydro-[2,2′-binaphthalene]-1,1′,4,4′-tetrone], the IC50 in the experiment with MOLM-14 cells (Table 2, read-out: MOLM14 IC50) amounted to 1.17 µM; in the experiment on MV4-11 cells (setting [5]), 1.65 µM.
Turning to “3-chloro-3′-(4-hydroxypiperidinyl)-2,2′-binaphthalenyl-1,1′,4,4′-tetrone [Compound 127]”, the IC50 in the experiment with MOLM-14 cells (Table 1, read-out: MOLM14 IC50) came out at 3.6 ± 0.63 µM; with MV4-11 cells (setting [12]), 2.1 ± 0.56 µM.
As for “3-chloro-3′-hydroxy dimeric naphthoquinone [Compound 144, reference compound]”, the IC50 in the experiment with MOLM-14 cells (Table 1, read-out: MOLM14 IC50) was determined as 6.5 ± 0.28 µM; in the experiment on MOLM-14 cells (Table 7, read-out: IC50 (μM) MOLM-14), 6.3 µM; in the experiment with MV4-11 cells (setting [12]), 3 ± 0.07 µM; with MV4-11 cells (Table 7, cell proliferation, read-out: IC50 (μM) MV411), 3 µM.
As to `O=C1C(Cl)=C(C2=C(N3CCN(CCO)CC3)C(=O)c3ccccc3C2=O)C(=O)c2ccccc21` [Compound 126, 3-chloro-3′-[(4-hydroxyethyl)piperazinyl]-2,2′-binaphthalenyl-1,1′,4,4′-tetrone], the IC50 in the experiment with MOLM-14 cells (setting [1]) amounted to 0.85 ± 0.25 µM; with MOLM-14 cells (setting [2]), 0.6 µM; in the experiment with MV4-11 cells (setting [3]), 0.76 ± 0.36 µM; with MV4-11 cells (setting [4]), 0.5 µM.
With `O=C1C(Cl)=C(C2=C(Cl)C(=O)c3cc(Br)ccc3C2=O)C(=O)c2ccccc21` [Compound 139], the IC50 with MOLM-14 cells (setting [2]) is 7.1 µM; with MV4-11 cells (setting [4]), 5 µM.
Take `CN(C)CCN(C)C1=C(C2=C(Cl)C(=O)c3ccccc3C2=O)C(=O)c2ccccc2C1=O` [Compound 124, 3-chloro-3′((2-(dimethylamino)ethyl)(methyl)amino)-[2,2′-binaphthalene]-1,1′,4,4′-tetrone]: the half-maximal inhibitory concentration (IC50) with MOLM-14 cells (setting [1]) is 2.8 ± 0.01 µM; with MOLM-14 cells (setting [2]), 2.8 µM; in the experiment with MV4-11 cells (setting [3]) it was 1.3 ± 1 µM; in the experiment with MV4-11 cells (setting [4]) it was 1.3 µM.
Take `O=C1C(C2=C(N3CCN(CCO)CC3)C(=O)c3ccccc3C2=O)=C(N2CCN(CCO)CC2)C(=O)c2ccccc21` [Compound 116]: the IC50 in the experiment on MOLM-14 cells (setting [8]) was 1.17 µM; in the experiment on MV4-11 cells (setting [9]) it was 1.65 µM.
On to `CN(C)C1=C(C2=C(N(C)C)C(=O)c3ccccc3C2=O)C(=O)c2ccccc2C1=O` [Compound 114, 3,3′-bis(dimethylamino)-[2,2′-binaphthalene]-1,1′,4,4′-tetrone], for which the half-inhibitory concentration (IC50) in the experiment on MV4-11 cells (Homo sapiens, MV4-11, Example 5 text, unit inferred, read-out: IC50 against MV4-11) was found to be 2.4 ± 0.3 µM.
In the case of `CC(=O)OCCNC1=C(C2=C(NCCOC(C)=O)C(=O)c3ccccc3C2=O)C(=O)c2ccccc2C1=O` [Compound 109, 3,3′bis-[(2-acyloxyethyl)amino]-2,2′-binaphthalenyl-1, -1′,4,4′-tetrone], the IC50 in the experiment on MOLM-14 cells (setting [6]) amounted to 1 µM; in the experiment with MV4-11 cells (setting [7]), 2.2 ± 0.74 µM.
For `CC(O)CNC1=C(C2=C(NCC(C)O)C(=O)c3ccccc3C2=O)C(=O)c2ccccc2C1=O` (stereo not drawn) [Compound 112] the same measures were 1.49 ± 0.46 µM and 3.94 ± 2.23 µM.
With `CN(CCO)C1=C(C2=C(N(C)CCO)C(=O)c3ccccc3C2=O)C(=O)c2ccccc2C1=O` [Compound 107, 3,3′-bis-[(2-hydroxyethyl)(N-methyl)amino]-2,2′-binaphthalenyl-1,1′,4,4′-tetrone], the IC50 with MOLM-14 cells (setting [6]) was determined as 5.85 ± 0.64 µM; in the experiment with MOLM-14 cells (setting [2]), 6.3 µM; with MV4-11 cells (setting [7]) it was 5.25 ± 0.35 µM; in the experiment with MV4-11 cells (setting [4]), 5 µM.
On to `CN(C)C1=C(C2=C(N(C)C)C(=O)c3ccccc3C2=O)C(=O)c2ccccc2C1=O` [Compound 135], for which the IC50 in the experiment with MOLM-14 cells (setting [8]) was 2.8 ± 0.9 µM; in the experiment on MV4-11 cells (setting [9]), 2.2 ± 0.6 µM.
With `O=C1C(NCCO)=C(C2=C(NCCO)C(=O)c3cc(F)ccc3C2=O)C(=O)c2ccccc21` [Compound 105, 3,3′-bis(2-hydroxyethylamino)-6-fluoro-2,2′-binaphthyl-1,1′,4,4′-tetrone], the IC50 in the experiment on MOLM-14 cells (setting [6]) stood at 1.3 ± 0.23 µM; in the experiment with MV4-11 cells (setting [7]) it was 2.05 ± 0.4 µM.
On to `CN(CCO)C1=C(C2=C(N(C)CCO)C(=O)c3ccccc3C2=O)C(=O)c2ccccc2C1=O` [Compound 118], for which the IC50 in the experiment on MOLM-14 cells (setting [8]) was 5.8 ± 0.6 µM; in the experiment with MV4-11 cells (setting [9]), 5.25 ± 0.3 µM.
Take `O=C1C(Cl)=C(C2=C(NCCO)C(=O)c3ccccc3C2=O)C(=O)c2ccccc21` [Compound 125, 3-chloro-3′-[(2-hydroxyethyl)amino]-2,2′-binaphthalenyl-1,1′,4,4′-tetrone]: the IC50 in the experiment with MOLM-14 cells (setting [1]) amounted to 2.2 µM; in the experiment on MOLM-14 cells (setting [2]), 2.2 µM; in the experiment on MV4-11 cells (setting [3]) it was 1.2 µM; in the experiment on MV4-11 cells (setting [4]) it was 1.2 µM.
For the compound `O=C1C(NCCO)=C(C2=C(NCCO)C(=O)c3ccccc3C2=O)C(=O)c2ccccc21` [Compound 115], the IC50 in the experiment on MOLM-14 cells (setting [8]) was 0.15 ± 0.01 µM; in the experiment with MV4-11 cells (setting [9]) it was 0.2 ± 0.02 µM.
Consider `O=C1C(C2=C(N3CCN(CCOCCO)CC3)C(=O)c3ccccc3C2=O)=C(N2CCN(CCOCCO)CC2)C(=O)c2ccccc21` [Compound 110, 3,3′-bis(4-(2-(2-hydroxyethoxy)ethyl)piperazin-1-yl)-[2,2′-binaphthalene]-1,1′,4,4′-tetrone], for which the concentration for half-maximal inhibition (IC50) with MOLM-14 cells (setting [6]) was found to be 1.9 ± 0.32 µM; in the experiment with MV4-11 cells (setting [7]) it was 140 ± 0.91 µM.
`COc1ccc2c(c1)C(=O)C(NCCO)=C(C1=C(NCCO)C(=O)c3ccccc3C1=O)C2=O` [Compound 104, 3,3′-bis(2-hydroxyethylamino)-6-methoxy-2,2′-binaphthalenyl-1,1′,4,4′-tetrone]: the half-maximal inhibitory concentration (IC50) in the experiment with MOLM-14 cells (setting [6]) came to 0.37 ± 0.17 µM; in the experiment on MOLM-14 cells (setting [8]), 1.32 ± 0.23 µM; in the experiment on MV4-11 cells (setting [7]) it was 1.16 ± 0.2 µM; in the experiment on MV4-11 cells (setting [9]) it was 2.05 ± 0.4 µM.
Take `O=C1C(C2=C(N3CCC(O)CC3)C(=O)c3ccccc3C2=O)=C(N2CCC(O)CC2)C(=O)c2ccccc21` [Compound 117]: the half-inhibitory concentration (IC50) came to 4.3 ± 2.1 µM in the experiment with MOLM-14 cells (setting [8]) and 2.5 µM with MV4-11 cells (setting [9]).
